The values that follow come from patent US4221781A, “Synergistic penicillin-cephalosporin compositions and methods” (priority 1971, dated 1980).

For one assay, the system named is Coliforma. Briefly: Example 9: in vitro MIC, serial dilution test, Coliforma. The assay is classed as cell-based. The procedure: (§1) Tryptose phosphate broth, containing the appropriate concentrations of the compounds or of the combination of them, was inoculated with 0.5×10^4 -5×10^4 organisms of the various microorganisms tested and incubated overnight at 37° C. Minimum inhibitory concentrations (M.I.C.) were taken as the concentrations of the compounds or of the combination at which no visible growth occurred.
(§2) Using the technique described in Example 1 the in vitro effect of combinations of 6-(D-α-aminophenylacetamido)-penicillanic acid (I) and 6-[(N,N-diethylformamidino)-N'-amino]penicillanic acid (VII) in the ratios 1:1, 1:2 and 2:1 against clinically isolated strains of Coliforma, Klebsiella-Enterobacter and Proteus was determined in serial dilution tests.

The subject of assay [1] is Klebsiella-Enterobacter. Description: Example 9: in vitro MIC, serial dilution test, Klebsiella-Enterobacter. Type of assay: cell-based. The procedure:
as §1, §2

The test system of assay [2] is Klebsiella-Enterobacter. Description: Example 4: in vitro M.I.C., serial dilution test, Klebsiella-Enterobacter. Type of assay: cell-based. The procedure: as §1
Assay [3] relates to E.coli III. Description: Example 6: emergence of resistance, subculturing by serial twofold broth dilution. Type of assay: cell-based. The note with it: Escherichia coli. The procedure:
Subculturing using a serial twofold broth dilution technique was performed with 6-(D-α-amino-phenylacetamido)-penicillanic acid (I), 6-[(piperidyl-1)methyleneamino]penicillanic acid (IV) and a 1:1 combination of I+IV. As inocula were used bacteria from the tube with the highest concentration of compound still permitting visible growth to the naked eye after incubation at 37° C. overnight. The following increases in MIC-values were noted.

The subject of assay [4] is Coliform. Briefly: Example 1: in vitro M.I.C., serial dilution test, coliforms. The assay is classed as cell-based. The note with it: 37° C overnight. The procedure:
as §1

The subject of assay [5] is Proteus. Briefly: Example 4: in vitro M.I.C., serial dilution test, Proteus. Type of assay: cell-based. The procedure: as §1
Assay [6] concerns Proteus. Description: Example 9: in vitro MIC, serial dilution test, Proteus. Type of assay: cell-based. The procedure:
as §1, §2

The subject of a further assay is Proteus vulgaris. Description: Example 1: in vitro M.I.C., serial dilution test, Proteus vulgaris. Type of assay: cell-based. The procedure: as §1
In assay [7] the test system is E.coli III. Description: Example 3: in vivo activity, mean curative dose in mice infected with E.coli III. Details: species or system female NMRI white mice. The note with it: Escherichia coli, sc, 96 h, subcutaneous, read-out: CD50 (mean curative dose). The procedure: The number of deaths in the various groups were recorded after 96 hours and the mean curative doses (CD50) were calculated. (In the table, LD50 gives the dilution of an overnight culture of the organism causing a 50% death rate in animals receiving no therapy; the number of LD50 -doses records the severity of the infections given to the animals.)

In assay [8] the test system is clinically isolated coliform. Description: Example 7: emergence of resistance, subculturing by serial twofold broth dilution. The assay is classed as cell-based. The procedure: Subculturing using a serial twofold broth dilution technique was performed with 6-(D-α-aminophenylacetamido)-penicillanic acid (I), 6-[(hexahydro-1H-azepin-1-yl)methyleneamino]penicillanic acid (II), and a 1:1 combination of I and II. The strain used was a clinically isolated coliform. As inocula were used bacteria from the tube with the highest concentration of compound still permitting visible growth to the naked eye after incubation at 37° C. overnight. The following increases in MIC values were noted.

Assay [9] deals with Proteus. Briefly: Example 1: in vitro M.I.C., serial dilution test, Proteus. The assay is classed as cell-based. The note with it: 37° C overnight. The procedure:
as §1

The subject of the next assay is Proteus mirabilis. Briefly: Example 1: in vitro M.I.C., serial dilution test, Proteus mirabilis. Type of assay: cell-based. The conditions noted are these: Proteus mirabilis strain 35895; 37° C overnight. The procedure: as §1
The subject of assay [10] is Proteus (Proteus Mirabilis I 190). Description: Example 11: in vitro M.I.C. of II, cephalosporins and 1:1 combinations. Type of assay: cell-based. The conditions noted are these: Proteus Mirabilis I 190, read-out: M.I.C. The procedure:
as §1
Using the same technique as described in Example 1 the in vitro activity of 6-[(hexahydro-1H-azepin-1-yl)methyleneamino]penicillanic acid (II), of various cephalosporins and of 1:1 combinations of II with these cephalosporins was determined against a clinically isolated strain of Proteus (Proteus Mirabilis I 190).

Assay [11] has as its system Klebsiella-Enterobacter (strain 4/71). Briefly: Example 10: in vitro M.I.C. of II, cephalosporins and 1:1 combinations. The assay is classed as cell-based. The conditions noted are these: Klebsiella-Enterobacter strain 4/71; read-out: M.I.C. The procedure: as §1
Using the same technique as described in Example 1 the in vitro activity of 6-[(hexahydro-1H-azepin-1-yl)methyleneamino]penicillanic acid (II), of various cephalosporins previously mentioned in this specification, and of 1:1 combinations of II with these cephalosporins was determined against a clinically isolated strain of Klebsiella-Enterobacter (strain 4/71)

In assay [12] the test system is clinically isolated coliform bacterium. Briefly: Example 5: in vitro M.I.C. of IV, various penicillins and 1:1 combinations. The assay is classed as cell-based. The procedure: as §1
Using the same technique as described in Example 1 the in vitro activity of 6[(piperidyl-1)-methyleneamino]-penicillianic acid (IV), of various penicillins, and of 1:1 combinations of IV with these penicillins, was determined against a clinically isolated coliform bacterium.

The subject of assay [13] is Coliform. Description: Example 4: in vitro M.I.C., serial dilution test, coliforms. Type of assay: cell-based. The procedure: as §1
Setting [14] is: Klebsiella-Enterobacter strain 8, read-out: MIC.
[15] abbreviates: Klebsiella-Enterobacter strain 2/70, read-out: M.I.C.
Where [16] appears, read: Proteus strain 6/70, read-out: M.I.C.
The mark [17] stands for this setting: Proteus vulgaris A, 37° C overnight, read-out: M.I.C.
The mark [18] stands for this setting: LD50 1.5·10^-3, 6.6 LD50-doses given.
[19] abbreviates: LD50 8.1·10^-4, 1.2·10^4 LD50-doses given.

Like-named read-outs stand apart in the source and are kept apart here. Bounds are passed on as bounds.

Regarding `CC1(C)S[C@@H]2[C@H](NC(=O)[C@H](N)c3ccccc3)C(=O)N2[C@H]1C(=O)O` [I, 6-(D-α-aminophenylacetamido)penicillanic acid], the MIC turned out to be 1.56 µg/mL in the assay with Coliforma (Coliforma strain 1); 3.12 µg/mL in the assay on Coliforma (Coliforma strain 4); 1.56 µg/mL in the assay on Coliforma (Coliforma strain 7); 3.12 µg/mL in the assay with Coliforma (Coliforma strain 13); 3.12 µg/mL in the assay with Coliforma (Coliforma strain 16); 50 µg/mL in the assay with Klebsiella-Enterobacter [1] (Klebsiella-Enterobacter strain 1). Besides, the MIC with Klebsiella-Enterobacter [1] (Klebsiella-Enterobacter strain 5) was 100 µg/mL; in the assay on Klebsiella-Enterobacter [1] (Klebsiella-Enterobacter strain 7), more than 100 µg/mL; in the assay with Klebsiella-Enterobacter [1] (setting [14]) it was 25 µg/mL; with Klebsiella-Enterobacter [2] (Klebsiella-Enterobacter strain 1/70), 50 µg/mL; in the assay on Klebsiella-Enterobacter [2] (setting [15]), 25 µg/mL; in the assay with Klebsiella-Enterobacter [2] (Klebsiella-Enterobacter strain 5/70), 100 µg/mL. In addition, the MIC is more than 100 µg/mL with Klebsiella-Enterobacter [2] (Klebsiella-Enterobacter strain 7/70); 50 µg/mL with Klebsiella-Enterobacter [2] (Klebsiella-Enterobacter strain 9/70); 50 µg/mL in the assay on Klebsiella-Enterobacter [2] (Klebsiella-Enterobacter strain 10/70); 100 µg/mL in the assay on Klebsiella-Enterobacter [2] (Klebsiella-Enterobacter strain 431); 1.56 µg/mL in the assay on E.coli III [3] (passage 0); 6.25 µg/mL with E.coli III [3] (passage 1). The MIC in the assay with E.coli III [3] (passage 2) is 25 µg/mL; with E.coli III [3] (passage 3) it was 50 µg/mL; in the assay on E.coli III [3] (passage 4), 50 µg/mL; in the assay on E.coli III [3] (passage 5), 100 µg/mL; in the assay on E.coli III [3] (passage 6) it was 100 µg/mL; in the assay on Coliform [4] (Coliform strain 3/70), 1.56 µg/mL. The MIC worked out at 3.12 µg/mL with Coliform [4] (Coliform strain 9/70); 3.12 µg/mL with Coliform [4] (Coliform strain 10/70); 3.12 µg/mL in the assay with Coliform [4] (Coliform strain 17/70); 1.56 µg/mL in the assay on Proteus [5] (Proteus strain 4/70); 0.39 µg/mL in the assay on Proteus [5] (setting [16]); 1.56 µg/mL in the assay on Proteus [5] (Proteus strain 7/70). Also, the MIC stood at 6.25 µg/mL with Proteus [5] (Proteus strain 9/70); 1.56 µg/mL with Proteus [5] (Proteus strain 10/70); 3.12 µg/mL with Proteus [6]; 50 µg/mL in the assay with Proteus vulgaris; 0.78 µg/mL in the assay on Proteus vulgaris (setting [17]); 12.5 µg/mL in [8] (passage 7). In addition, the MIC in [8] (passage 8) is 12.5 µg/mL; in the assay with Proteus [9] (Proteus strain 12/70), 100 µg/mL; in the assay with Proteus [9] (Proteus strain 13/70), 100 µg/mL; with Proteus [9] (Proteus strain 20/70) it was more than 100 µg/mL; in the assay on Proteus mirabilis, 25 µg/mL. For the same molecule, the figures for the ED50 with E.coli III [7] (setting [18]) and in the assay with E.coli III [7] (setting [19]) were 5.5 mg/kg and 250 mg/kg, respectively.

On to `CC1(C)S[C@@H]2[C@H](N=CN3CCCCCC3)C(=O)N2[C@H]1C(=O)O` [II, 6-[(hexahydro-1H-azepin-1-yl)methyleneamino]penicillanic acid], for which the MIC was more than 100 µg/mL in assay [10]; 12.5 µg/mL with Coliform [4] (Coliform strain 3/70); 0.78 µg/mL in the assay with Coliform [4] (Coliform strain 17/70); 0.19 µg/mL with Proteus vulgaris (setting [17]); 1.56 µg/mL in the assay with Proteus vulgaris (Proteus vulgaris B, 37° C overnight, read-out: M.I.C.); more than 100 µg/mL in [11]. Further, the MIC in [8] (passage 0) stood at 0.39 µg/mL; in assay [8] (passage 1), 6.25 µg/mL; in assay [8] (passage 2), 25 µg/mL; in assay [8] (passage 3) it was 25 µg/mL; in assay [8] (passage 4), 25 µg/mL; in [8] (passage 5), 25 µg/mL. In addition, the MIC in assay [8] (passage 7) was 25 µg/mL; in assay [8] (passage 8), 25 µg/mL; in the assay on Proteus [9] (Proteus strain 12/70, read-out: M.I.C.), 3.12 µg/mL; in the assay with Proteus [9] (Proteus strain 13/70, read-out: M.I.C.), 3.12 µg/mL; in the assay with Proteus [9] (Proteus strain 20/70, read-out: M.I.C.), more than 100 µg/mL; in the assay with Proteus mirabilis, 0.78 µg/mL. The ED50 in the assay with E.coli III [7] (setting [18]) was 2 mg/kg; with E.coli III [7] (setting [19]) it was more than 500 mg/kg.

For the molecule `CC1(C)S[C@@H]2[C@H](N=CN3CCCCC3)C(=O)N2[C@H]1C(=O)O` [IV, 6-[(piperidyl-1)-methyleneamino]penicillanic acid], the MIC with Klebsiella-Enterobacter [2] (Klebsiella-Enterobacter strain 1/70, read-out: M.I.C.) is more than 100 µg/mL; in the assay on Klebsiella-Enterobacter [2] (setting [15]), 12.5 µg/mL; in the assay with Klebsiella-Enterobacter [2] (Klebsiella-Enterobacter strain 5/70, read-out: M.I.C.) it was more than 100 µg/mL; in the assay with Klebsiella-Enterobacter [2] (Klebsiella-Enterobacter strain 7/70, read-out: M.I.C.) it was more than 100 µg/mL; with Klebsiella-Enterobacter [2] (Klebsiella-Enterobacter strain 9/70, read-out: M.I.C.) it was 3.12 µg/mL; in the assay on Klebsiella-Enterobacter [2] (Klebsiella-Enterobacter strain 10/70, read-out: M.I.C.), more than 100 µg/mL. The MIC in the assay with Klebsiella-Enterobacter [2] (Klebsiella-Enterobacter strain 431, read-out: M.I.C.) is more than 100 µg/mL; with E.coli III [3] (passage 0), 0.78 µg/mL; with E.coli III [3] (passage 1) it was 6.25 µg/mL; in the assay with E.coli III [3] (passage 2), 6.28 µg/mL; with E.coli III [3] (passage 3), 25 µg/mL; in the assay on E.coli III [3] (passage 4), 25 µg/mL. Also, the MIC is 25 µg/mL in the assay on E.coli III [3] (passage 5); 25 µg/mL in the assay on E.coli III [3] (passage 6); 25 µg/mL in the assay on Proteus [5] (Proteus strain 4/70, read-out: M.I.C.); 3.12 µg/mL in the assay on Proteus [5] (setting [16]); 50 µg/mL with Proteus [5] (Proteus strain 7/70, read-out: M.I.C.); 100 µg/mL in the assay with Proteus [5] (Proteus strain 9/70, read-out: M.I.C.). Besides, the MIC in the assay on Proteus [5] (Proteus strain 10/70, read-out: M.I.C.) was found to be 25 µg/mL; in [12] it was 6.25 µg/mL; in the assay on Coliform [13] (Coliform strain 7/70), 1.56 µg/mL; with Coliform [13] (Coliform strain 16/70), 1.56 µg/mL; with Coliform [13] (Coliform strain 17/70) it was 1.56 µg/mL.

For the molecule `CCN(C=NC1C(=O)N2C1SC(C)(C)C2C(=O)O)CC` (centres unmarked) [VII, 6-[(N,N-diethylformamidino)-N'-amino]penicillanic acid], the MIC with Coliforma (Coliforma strain 1) was 3.12 µg/mL; in the assay on Coliforma (Coliforma strain 4), 3.12 µg/mL; in the assay on Coliforma (Coliforma strain 7), 6.25 µg/mL; in the assay with Coliforma (Coliforma strain 16), 6.25 µg/mL; in the assay on Klebsiella-Enterobacter [1] (Klebsiella-Enterobacter strain 1, read-out: MIC) it was more than 100 µg/mL; with Klebsiella-Enterobacter [1] (Klebsiella-Enterobacter strain 5, read-out: MIC) it was more than 100 µg/mL. The MIC in the assay with Klebsiella-Enterobacter [1] (Klebsiella-Enterobacter strain 7, read-out: MIC) is more than 100 µg/mL; in the assay on Klebsiella-Enterobacter [1] (setting [14]) it was 12.5 µg/mL; in the assay with Proteus [6] (Proteus strain 9, read-out: MIC), 100 µg/mL.
